Broadly, the IC50 is the concentration that gives 50% inhibition.

Molecules are shown by their SMILES. Structures can show the parent of a compound that is named as a salt.

These results are taken from US9493448B2, “Cycloalkane derivatives” (Daiichi Sankyo Company, Limited, priority 2012, dated 2016).

Sequence of hNav 1.7 (Q15858 whole entry): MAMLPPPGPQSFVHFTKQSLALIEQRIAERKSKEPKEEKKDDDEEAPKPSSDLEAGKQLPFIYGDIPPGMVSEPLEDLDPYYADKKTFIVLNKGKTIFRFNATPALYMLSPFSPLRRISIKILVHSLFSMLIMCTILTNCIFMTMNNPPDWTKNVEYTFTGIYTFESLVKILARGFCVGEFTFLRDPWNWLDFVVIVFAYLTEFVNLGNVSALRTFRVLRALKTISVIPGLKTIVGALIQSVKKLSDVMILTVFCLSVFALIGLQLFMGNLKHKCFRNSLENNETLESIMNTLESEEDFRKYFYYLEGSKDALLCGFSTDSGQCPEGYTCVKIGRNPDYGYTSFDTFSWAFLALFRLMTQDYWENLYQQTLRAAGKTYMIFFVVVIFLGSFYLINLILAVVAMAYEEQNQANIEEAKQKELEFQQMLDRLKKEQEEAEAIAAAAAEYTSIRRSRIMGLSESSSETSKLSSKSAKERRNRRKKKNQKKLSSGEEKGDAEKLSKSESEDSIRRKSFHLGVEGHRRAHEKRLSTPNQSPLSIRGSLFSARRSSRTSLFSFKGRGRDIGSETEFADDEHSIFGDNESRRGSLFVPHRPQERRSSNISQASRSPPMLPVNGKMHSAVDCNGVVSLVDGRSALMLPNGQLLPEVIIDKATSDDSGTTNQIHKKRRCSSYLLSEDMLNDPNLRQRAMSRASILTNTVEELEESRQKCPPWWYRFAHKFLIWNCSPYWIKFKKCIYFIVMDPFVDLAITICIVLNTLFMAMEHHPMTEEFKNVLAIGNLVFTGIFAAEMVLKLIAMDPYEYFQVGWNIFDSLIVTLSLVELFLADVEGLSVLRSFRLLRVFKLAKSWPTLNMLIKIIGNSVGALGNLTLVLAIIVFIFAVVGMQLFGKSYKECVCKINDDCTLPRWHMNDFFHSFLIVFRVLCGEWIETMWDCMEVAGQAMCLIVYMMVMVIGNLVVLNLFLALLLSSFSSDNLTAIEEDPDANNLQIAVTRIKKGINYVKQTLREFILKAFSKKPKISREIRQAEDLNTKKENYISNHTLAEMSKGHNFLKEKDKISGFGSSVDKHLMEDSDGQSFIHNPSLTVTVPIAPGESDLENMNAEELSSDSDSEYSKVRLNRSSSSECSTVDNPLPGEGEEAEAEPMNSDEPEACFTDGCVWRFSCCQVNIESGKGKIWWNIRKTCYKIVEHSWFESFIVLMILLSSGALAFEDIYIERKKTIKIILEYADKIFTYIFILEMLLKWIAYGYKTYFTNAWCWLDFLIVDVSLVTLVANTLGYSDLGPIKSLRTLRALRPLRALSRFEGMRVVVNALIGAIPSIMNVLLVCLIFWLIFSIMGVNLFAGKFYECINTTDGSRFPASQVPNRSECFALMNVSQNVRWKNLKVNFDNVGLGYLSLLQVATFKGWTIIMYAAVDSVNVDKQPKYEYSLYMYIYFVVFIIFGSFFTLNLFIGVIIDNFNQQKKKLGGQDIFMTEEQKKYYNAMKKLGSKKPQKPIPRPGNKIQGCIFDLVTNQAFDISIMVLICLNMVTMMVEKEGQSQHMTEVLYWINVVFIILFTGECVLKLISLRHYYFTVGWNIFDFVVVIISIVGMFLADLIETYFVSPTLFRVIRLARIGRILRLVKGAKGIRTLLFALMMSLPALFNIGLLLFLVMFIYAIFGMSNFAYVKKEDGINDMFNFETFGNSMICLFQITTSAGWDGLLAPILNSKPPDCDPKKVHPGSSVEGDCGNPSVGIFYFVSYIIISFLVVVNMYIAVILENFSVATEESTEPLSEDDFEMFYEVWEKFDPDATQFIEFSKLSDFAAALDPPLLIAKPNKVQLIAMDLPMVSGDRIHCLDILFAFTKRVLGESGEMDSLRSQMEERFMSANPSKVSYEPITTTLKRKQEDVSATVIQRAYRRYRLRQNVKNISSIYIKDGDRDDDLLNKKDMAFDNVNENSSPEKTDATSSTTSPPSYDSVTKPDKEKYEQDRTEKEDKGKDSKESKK
Sequence of hNav 1.7 (Q07699 19-218 partner): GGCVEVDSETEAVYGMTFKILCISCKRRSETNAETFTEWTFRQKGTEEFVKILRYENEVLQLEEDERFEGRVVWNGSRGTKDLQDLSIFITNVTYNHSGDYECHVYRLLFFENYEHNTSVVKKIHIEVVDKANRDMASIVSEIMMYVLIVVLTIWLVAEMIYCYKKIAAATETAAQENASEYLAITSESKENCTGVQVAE
Sequence of hNav 1.7 (O60939 30-215 partner): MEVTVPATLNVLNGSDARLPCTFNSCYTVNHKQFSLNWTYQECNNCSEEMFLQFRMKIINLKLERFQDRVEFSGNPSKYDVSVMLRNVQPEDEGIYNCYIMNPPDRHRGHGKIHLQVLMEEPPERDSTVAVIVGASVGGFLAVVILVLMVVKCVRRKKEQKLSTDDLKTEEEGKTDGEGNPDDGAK

This experiment addresses hNav 1.7 (Homo sapiens (Human), UniProt Q15858). In words: Electrophysiological evaluation, automated patch clamp IonWorks Quattro (Population Patch Clamp mode). It is filed as cell-based. Conditions: HEK293A cells stably expressing hNav 1.7/β1/β2; response to second depolarization pulse, pre-pulse potential set to V1/2; read-out: hNav1.7 IC50. Background: The patch-clamp technique gives a direct electrical read-out from membranes.
Consider `O=S(=O)(Nc1ncns1)c1cc(F)c(O[C@H]2CCC[C@@H]2c2ccccc2)cc1F` (relative stereo) [Example 6, 2,5-Difluoro-4-{[(1S*,2R*)-2-phenylcyclopentyl]oxy}-N-(1,2,4-thiadiazol-5-yl)benzenesulfonamide], for which the IC50 was found to be 610 nM.

For `O=S(=O)(Nc1ncns1)c1cc(F)c(O[C@H]2CCCCC[C@@H]2c2ccccc2)cc1F` (relative stereo) [Example 7, 2,5-Difluoro-4-{[(1S*,2R*)-2-phenylcycloheptyl]oxy}-N-(1,2,4-thiadiazol-5-yl)benzenesulfonamide], the IC50 was 450 nM. Regarding `Cn1nccc1[C@H]1CCCCC[C@@H]1Oc1cc(F)c(S(=O)(=O)Nc2ncns2)cc1F` (relative stereo) [Example 9, 2,5-Difluoro-4-{[(1S*,2R*)-2-(1-methyl-1H-pyrazol-5-yl)cycloheptyl]oxy}-N-(1,2,4-thiadiazol-5-yl)benzenesulfonamide], the IC50 was 14 nM. For the molecule `Cn1nccc1[C@H]1CCCC[C@@H]1Oc1cc(F)c(S(=O)(=O)Nc2cscn2)cc1Cl` (relative stereo) [Example 10, 5-Chloro-2-fluoro-4-{[(1S*,2R*)-2-(1-methyl-1H-pyrazol-5-yl)cyclohexyl]oxy}-N-(1,3-thiazol-4-yl)benzenesulfonamide Na salt], the IC50 amounted to 30 nM. The result for `Cn1nccc1[C@H]1CCC[C@@H]1Oc1cc(F)c(S(=O)(=O)Nc2cscn2)cc1Cl` (relative stereo) [Example 11, 5-Chloro-2-fluoro-4-{[(1S*,2R*)-2-(1-methyl-1H-pyrazol-5-yl)cyclopentyl]oxy}-N-(1,3-thiazol-4-yl)benzenesulfonamide Na salt] reads 10 nM; that for `CCn1nccc1[C@H]1CCCC[C@@H]1Oc1cc(F)c(S(=O)(=O)Nc2cscn2)cc1Cl` (relative stereo) [Example 12, 5-Chloro-4-{[(1S*,2R*)-2-(1-ethyl-1H-pyrazol-5-yl)cyclohexyl]oxy}-2-fluoro-N-(1,3-thiazol-4-yl)benzenesulfonamide], 120 nM; that for `O=S(=O)(Nc1cscn1)c1cc(Cl)c(O[C@H]2CCCC[C@@H]2n2ccnc2)cc1F` (relative stereo) [Example 13, 5-chloro-2-fluoro-4-{[(1S*,2S*)-2-(1H-imidazol-1-yl)cyclohexyl]oxy}-N-(1,3-thiazol-4-yl)benzenesulfonamide], 82 nM. The value for `Cn1nccc1[C@H]1CCC[C@@H]1Oc1ccc(S(=O)(=O)Nc2nccs2)cc1F` (relative stereo) [Example 16, 3-Fluoro-4-{[(1S*,2R*)-2-(1-methyl-1H-pyrazol-5-yl)cyclopentyl]oxy}-N-(1,3-thiazol-2-yl)benzenesulfonamide] was 230 nM. Take `Cn1nccc1[C@H]1CCC[C@@H]1Oc1ccc(S(=O)(=O)Nc2cc(F)ncn2)cc1F` (relative stereo) [Example 17, 3-Fluoro-N-(6-fluoropyrimidin-4-yl)-4-{[(1S*,2R*)-2-(1-methyl-1H-pyrazol-5-yl)cyclopentyl]oxy}benzenesulfonamide]: the IC50 came out at 510 nM. The result for `Cn1nccc1[C@H]1CCC[C@@H]1Oc1ccc(S(=O)(=O)Nc2ccnc(F)n2)cc1F` (relative stereo) [Example 18, 3-Fluoro-N-(2-fluoropyrimidin-4-yl)-4-{[(1S*,2R*)-2-(1-methyl-1H-pyrazol-5-yl)cyclopentyl]oxy}benzenesulfonamide] reads 170 nM; that for `Cn1nccc1[C@H]1CCC[C@@H]1Oc1cc(Cl)c(S(=O)(=O)Nc2ccncn2)cc1F` (relative stereo) [Example 19, 2-Chloro-5-fluoro-4-{[(1S*,2R*)-2-(1-methyl-1H-pyrazol-5-yl)cyclopentyl]oxy}-N-(pyrimidin-4-yl)benzenesulfonamide], 510 nM; that for `Cn1nccc1[C@H]1CCC[C@@H]1Oc1ccc(S(=O)(=O)Nc2ccncn2)cc1C(F)(F)F` (relative stereo) [Example 21, 4-{[(1S*,2R*)-2-(1-Methyl-1H-pyrazol-5-yl)cyclopentyl]oxy}-N-(pyrimidin-4-yl)-3-(trifluoromethyl)benzenesulfonamide], 250 nM.

Regarding `O=S(=O)(Nc1ccncn1)c1cc(F)c(O[C@H]2CCCC[C@@H]2c2ccn[nH]2)cc1F` (relative stereo) [Example 22, 2,5-Difluoro-4-{[(1S*,2R*)-2-(1H-pyrazol-5-yl)cyclohexyl]oxy}-N-(pyrimidin-4-yl)benzenesulfonamide], the IC50 was 520 nM. The value for `Cn1nccc1[C@H]1CCC[C@@H]1Oc1cc(F)c(S(=O)(=O)Nc2ccnc(F)n2)cc1F` (relative stereo) [Example 24, 2,5-Difluoro-N-(2-fluoropyrimidin-4-yl)-4-{[(1S*,2R*)-2-(1-methyl-1H-pyrazol-5-yl)cyclopentyl]oxy}benzenesulfonamide] was 23 nM; that for `Cn1nccc1[C@H]1CCC[C@@H]1Oc1ccc(S(=O)(=O)Nc2ccncn2)cc1C#N` (relative stereo) [Example 26, 3-Cyano-4-{[(1S*,2R*)-2-(1-methyl-1H-pyrazol-5-yl)cyclopentyl]oxy}-N-(pyrimidin-4-yl)benzenesulfonamide] was 200 nM; that for `Nc1n[nH]cc1[C@H]1CCCC[C@@H]1Oc1cc(F)c(S(=O)(=O)Nc2ccncn2)cc1F` (relative stereo) [Example 34, 4-{[(1S*,2R*)-2-(3-Amino-1H-pyrazol-4-yl)cyclohexyl]oxy}-2,5-difluoro-N-(pyrimidin-4-yl)benzenesulfonamide] was 250 nM.

For `Nc1cc([C@H]2CCC[C@@H]2Oc2cc(F)c(S(=O)(=O)Nc3ccncn3)cc2F)ccn1` (relative stereo) [Example 36, 4-{[(1S*,2R*)-2-(2-Aminopyridin-4-yl)cyclopentyl]oxy}-2,5-difluoro-N-(pyrimidin-4-yl)benzenesulfonamide], the IC50 amounted to 500 nM. The value for `O=S(=O)(Nc1ccncn1)c1cc(F)c(O[C@H]2CCCC[C@@H]2c2cccnc2)cc1F` (relative stereo) [Example 39, 2,5-Difluoro-4-{[(1S*,2R*)-2-(pyridin-3-yl)cyclohexyl]oxy}-N-(pyrimidin-4-yl)benzenesulfonamide] was 1000 nM.

As to `Cn1cncc1[C@H]1CCCC[C@@H]1Oc1cc(F)c(S(=O)(=O)Nc2ccncn2)cc1F` (relative stereo) [Example 49, 2,5-Difluoro-4-{[(1S*,2R*)-2-(1-methyl-1H-imidazol-5-yl)cyclohexyl]oxy}-N-(pyrimidin-4-yl)benzenesulfonamide], the half-inhibitory concentration (IC50) turned out to be 660 nM.

For the molecule `O=S(=O)(Nc1ccncn1)c1cc(F)c(O[C@H]2CCCC[C@@H]2c2ccnnc2)cc1F` (relative stereo) [Example 53, 2,5-Difluoro-4-{[(1S*,2R*)-2-(pyridazin-4-yl)cyclohexyl]oxy}-N-(pyrimidin-4-yl)benzenesulfonamide], the IC50 was 330 nM. The result for `CCc1cc(S(=O)(=O)Nc2ccncn2)c(F)cc1O[C@H]1CCC[C@@H]1c1ccnn1C` (relative stereo) [Example 61, 5-Ethyl-2-fluoro-4-{[(1S*,2R*)-2-(1-methyl-1H-pyrazol-5-yl)cyclopentyl]oxy}-N-(pyrimidin-4-yl)benzenesulfonamide] reads 2.6 nM; that for `Cc1ncccc1[C@H]1CCCC[C@@H]1Oc1cc(F)c(S(=O)(=O)Nc2ccncn2)cc1F` (relative stereo) [Example 70, 2,5-Difluoro-4-{[(1S*,2R*)-2-(2-methylpyridin-3-yl)cyclohexyl]oxy}-N-(pyrimidin-4-yl)benzenesulfonamide], 330 nM; that for `CCc1cc(S(=O)(=O)Nc2ccncn2)ccc1O[C@H]1CCCC[C@@H]1c1c[nH]nc1N` (relative stereo) [Example 89, 4-{[(1S*,2R*)-2-(3-Amino-1H-pyrazol-4-yl)cyclohexyl]oxy}-3-ethyl-N-(pyrimidin-4-yl)benzenesulfonamide], 130 nM. The result for `Cn1nncc1[C@H]1CCCC[C@@H]1Oc1cc(F)c(S(=O)(=O)Nc2ccncn2)cc1F` (relative stereo) [Example 92, 2,5-Difluoro-4-{[(1S*,2R*)-2-(1-methyl-1H-1,2,3-triazol-5-yl)cyclohexyl]oxy}-N-(pyrimidin-4-yl)benzenesulfonamide] reads 1000 nM.

`Cn1nccc1[C@@H]1[C@@H](Oc2cc(F)c(S(=O)(=O)Nc3ccncn3)cc2F)CCC1(C)C` (relative stereo) [Example 99, 4-{[(1S*,2R*)-3,3-Dimethyl-2-(1-methyl-1H-pyrazol-5-yl)cyclopentyl]oxy}-2,5-difluoro-N-(pyrimidin-4-yl)benzenesulfonamide]: the IC50 was 410 nM. Consider `Cn1nccc1[C@@H]1[C@@H](Oc2cc(F)c(S(=O)(=O)Nc3ccncn3)cc2F)CCC[C@H]1OCc1ccccc1` (relative stereo) [Example 100, 4-{[(1S*,2S*,3R*)-3-(Benzyloxy)-2-(1-methyl-1H-pyrazol-5-yl)cyclohexyl]oxy}-2,5-difluoro-N-(pyrimidin-4-yl)benzenesulfonamide], for which the IC50 was 380 nM.

For `Cn1nccc1[C@H]1C[C@@H](F)C[C@@H]1Oc1cc(F)c(S(=O)(=O)Nc2ccncn2)cc1F` (relative stereo) [Example 106, 2,5-Difluoro-4-{[(1S*,2R*,4R*)-4-fluoro-2-(1-methyl-1H-pyrazol-5-yl)cyclopentyl]oxy}-N-(pyrimidin-4-yl)benzenesulfonamide], the IC50 was 270 nM.

Take `Cn1nccc1[C@H]1C[C@H](OCc2ccccc2)CC[C@@H]1Oc1cc(F)c(S(=O)(=O)Nc2ccncn2)cc1F` (relative stereo) [Example 112, 4-{[(1S*,2R*,4R*)-4-(Benzyloxy)-2-(1-methyl-1H-pyrazol-5-yl)cyclohexyl]oxy}-2,5-difluoro-N-(pyrimidin-4-yl)benzenesulfonamide]: the 50% inhibitory concentration (IC50) amounted to 310 nM. The result for `Cn1nccc1[C@@H]1[C@@H](Oc2cc(F)c(S(=O)(=O)Nc3ccncn3)cc2F)CCCC1(F)F` (relative stereo) [Example 117, 4-{[(1S*,2R*)-3,3-Difluoro-2-(1-methyl-1H-pyrazol-5-yl)cyclohexyl]oxy}-2,5-difluoro-N-(pyrimidin-4-yl)benzenesulfonamide] reads 750 nM.
